The record followed here is patent publication US20260356856A1, “KRAS G12S AND G12C INHIBITORS” (MIRATI THERAPEUTICS, INC., priority 2023, published 2026).

Assay [1] has as its target T1, KRas-mediated phosphorylation of ERK in H358 cells (Homo sapiens, UniProt P01116, G12C).
T1 construct: pERK HTRF read-out
The assay is described as follows: Inhibition of KRas-mediated phosphorylation of ERK (HTRF), H358 cells. It is filed as cell-based. The conditions noted are these: HTRF pERK, 3 h incubation.

The target in assay [2] is T2, KRas-mediated phosphorylation of ERK in MKN1 cells (Homo sapiens, UniProt P01116).
T2 construct: pERK HTRF read-out
T2 sequence (P01116 1-188 isoform P01116-2): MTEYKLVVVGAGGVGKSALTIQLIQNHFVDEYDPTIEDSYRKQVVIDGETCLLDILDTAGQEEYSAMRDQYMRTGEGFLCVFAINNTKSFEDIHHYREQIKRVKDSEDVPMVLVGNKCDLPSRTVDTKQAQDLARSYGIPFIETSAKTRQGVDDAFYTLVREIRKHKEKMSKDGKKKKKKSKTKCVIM
The assay is described as follows: Inhibition of KRas-mediated phosphorylation of ERK (HTRF), MKN1 cells. It is filed as cell-based. The conditions noted are these: MKN1 cells (KRas WT); HTRF pERK; 3 h incubation. Here is the method:
Inhibition of KRas Phosphorylation of ERK (HTRF) by Exemplary Compounds of Formula (Ia) or (Ib)
Cisbio HTRF Advanced pERK Assay Catalog #64AERPEH • Cells: MKN1, PSN1 • Procedure: • 1. Day 1: Seed 6,000 cells/well −25 μl/well in 384-well white solid bottom plate; RPM1_10% FBS. Incubate overnight at 37 °C/5% CO2. • 2.

The next assay concerns the target T3, KRas WT (Homo sapiens, UniProt P01116).
T3 construct: Biotinylated KRas (corresponding to amino acids 1-169, produced at Accelegan Inc.); biotin (biotinylated); purchased Accelegan Inc
The assay is described as follows: KRas binding assay, TR-FRET displacement of Cy5 labelled tracer. The conditions noted are these: 60-minute incubation at room temperature, 1% DMSO, pH 7.5. Summed up:
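Biotinylated KRas (aa 1-169) incubated with Cy5-labelled tracer, terbium streptavidin and compound (1% DMSO final) in 50 mM HEPES pH 7.5, 5 mM MgCl2, 0.005% Tween-20, 1 mM DTT. Tracer displacement read by TR-FRET after 60 min at room temperature; POC values fitted to 4-parameter IC50 equation.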

The target in the next assay is T4, KRas G12C (Homo sapiens, UniProt P01116, G12C).
T4 construct: Biotinylated KRas (corresponding to amino acids 1-169, produced at Accelegan Inc.); biotin (biotinylated); purchased Accelegan Inc
T4 sequence (P01116 1-169 isoform P01116-2 G12C): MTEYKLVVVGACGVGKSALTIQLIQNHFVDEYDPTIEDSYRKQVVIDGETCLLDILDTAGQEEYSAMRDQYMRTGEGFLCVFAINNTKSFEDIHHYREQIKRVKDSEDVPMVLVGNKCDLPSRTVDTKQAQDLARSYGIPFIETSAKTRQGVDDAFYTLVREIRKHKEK
The description is as above. To be noted: 60-minute incubation at room temperature, 1% DMSO, pH 7.5. Summed up: (§1)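 Displacement measured on KRas residues 1-169 (biotinylated, terbium-streptavidin labelled); 1 h, RT; 1% DMSO final; HEPES pH 7.5 / MgCl2 / Tween-20 / DTT. IC50: 4-parameter fit.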

The target in the next assay is T5, KRas G12S (Homo sapiens, UniProt P01116, G12S).
T5 construct: Biotinylated KRas (corresponding to amino acids 1-169, produced at Accelegan Inc.); biotin (biotinylated); purchased Accelegan Inc
T5 sequence (P01116 1-169 isoform P01116-2 G12S): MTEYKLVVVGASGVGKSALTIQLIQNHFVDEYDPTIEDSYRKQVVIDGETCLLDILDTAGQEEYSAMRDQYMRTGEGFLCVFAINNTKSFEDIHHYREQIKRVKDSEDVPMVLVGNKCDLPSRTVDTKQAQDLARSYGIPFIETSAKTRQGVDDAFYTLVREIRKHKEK
The assay is described as above. The conditions noted are these: 60-minute incubation at room temperature, 1% DMSO, pH 7.5. Summed up: as §1

In assay [3] the target is T6, KRas-mediated phosphorylation of ERK in A549 cells (Homo sapiens, UniProt P01116, G12S).
T6 construct: pERK HTRF read-out
T6 sequence (P01116 1-188 isoform P01116-2 G12S): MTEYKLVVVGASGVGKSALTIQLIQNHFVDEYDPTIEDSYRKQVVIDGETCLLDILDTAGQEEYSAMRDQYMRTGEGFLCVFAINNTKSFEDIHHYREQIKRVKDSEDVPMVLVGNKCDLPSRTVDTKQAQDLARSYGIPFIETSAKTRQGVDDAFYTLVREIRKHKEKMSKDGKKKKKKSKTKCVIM
The assay can be described thus: Inhibition of KRas-mediated phosphorylation of ERK (HTRF), A549 cells. It counts as cell-based. To be noted: HTRF pERK, 3 h incubation.

T3 sequence (P01116 1-169 isoform P01116-2): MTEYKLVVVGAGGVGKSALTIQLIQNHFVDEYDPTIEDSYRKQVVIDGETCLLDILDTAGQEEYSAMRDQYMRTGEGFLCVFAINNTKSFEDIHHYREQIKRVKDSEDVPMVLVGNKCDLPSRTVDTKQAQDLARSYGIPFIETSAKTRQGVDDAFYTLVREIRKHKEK
T1 sequence (P01116 1-188 isoform P01116-2 G12C): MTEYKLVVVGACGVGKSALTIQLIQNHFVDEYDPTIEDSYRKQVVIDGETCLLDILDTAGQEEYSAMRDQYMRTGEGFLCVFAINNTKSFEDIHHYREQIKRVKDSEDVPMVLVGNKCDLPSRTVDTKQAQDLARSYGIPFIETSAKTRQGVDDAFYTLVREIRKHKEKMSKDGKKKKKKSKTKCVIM

As for `CCc1c(F)ccc2cc(O)cc(-c3ncc4c(N5CC[C@@H](C(=O)n6ccc(C)n6)[C@H](C)C5)nc(OC[C@@]56CCCN5C[C@H](F)C6)nc4c3F)c12` [Example 71, ((3S,4R)-1-(7-(8-ethyl-7-fluoro-3-hydroxynaphthalen-1-yl)-8-fluoro-2-(((2R,7aS)-2-fluorotetrahydro-1H-pyrrolizin-7a(5H)-yl)methoxy)pyrido[4,3-d]pyrimidin-4-yl)-3-methylpiperidin-4-yl)(3-methyl-1H-pyrazol-1-yl)methanone], the IC50 in assay [1] was 930 nM; in assay [2], 8470 nM; on KRas WT, 2090 nM; on KRas G12C it was 1690 nM; at KRas G12S it was 2500 nM; in assay [3], 2030 nM.
`CCc1c(F)ccc2cc(O)cc(-c3ncc4c(N5CCC(C(=O)n6cc(C(C)(C)C)cn6)CC5)nc(OC[C@@]56CCCN5C[C@H](F)C6)nc4c3F)c12` [Example 72, (4-(tert-butyl)-1H-pyrazol-1-yl)(1-(7-(8-ethyl-7-fluoro-3-hydroxynaphthalen-1-yl)-8-fluoro-2-(((2R,7aS)-2-fluorotetrahydro-1H-pyrrolizin-7a(5H)-yl)methoxy)pyrido[4,3-d]pyrimidin-4-yl)piperidin-4-yl)methanone]: the IC50 is 7290 nM in assay [1]; 3330 nM in assay [2]; 572 nM at KRas WT; 408 nM at KRas G12C; 274 nM at KRas G12S; 748 nM in assay [3].
Take `CCc1c(F)ccc2cc(O)cc(-c3ncc4c(N5CCC(C(=O)n6nc(C)c(C)c6C)CC5)nc(OC[C@@]56CCCN5C[C@H](F)C6)nc4c3F)c12` [Example 73, (1-(7-(8-ethyl-7-fluoro-3-hydroxynaphthalen-1-yl)-8-fluoro-2-(((2R,7aS)-2-fluorotetrahydro-1H-pyrrolizin-7a(5H)-yl)methoxy)pyrido[4,3-d]pyrimidin-4-yl)piperidin-4-yl)(3,4,5-trimethyl-1H-pyrazol-1-yl)methanone]: the IC50 in assay [1] is 4500 nM; in assay [2], 5570 nM; at KRas WT, 1080 nM; at KRas G12C, 888 nM; on KRas G12S it was 2960 nM; in assay [3], 8480 nM.
In the case of `CCc1c(F)ccc2cc(O)cc(-c3ncc4c(N5CCC(C(=O)n6nc(C)cc6C)CC5)nc(OC[C@@]56CCCN5C[C@H](F)C6)nc4c3F)c12` [Example 74, (3,5-dimethyl-1H-pyrazol-1-yl)(1-(7-(8-ethyl-7-fluoro-3-hydroxynaphthalen-1-yl)-8-fluoro-2-(((2R,7aS)-2-fluorotetrahydro-1H-pyrrolizin-7a(5H)-yl)methoxy)pyrido[4,3-d]pyrimidin-4-yl)piperidin-4-yl)methanone], the IC50 was 2290 nM in assay [1]; 3330 nM in assay [2]; 798 nM at KRas WT; 578 nM at KRas G12C; 885 nM on KRas G12S; 464 nM in assay [3].
Take `CCc1c(F)ccc2cc(O)cc(-c3ncc4c(N5CCC(C(=O)n6ccc(C(C)(C)C)n6)CC5)nc(OC[C@@]56CCCN5C[C@H](F)C6)nc4c3F)c12` [Example 75, (3-(tert-butyl)-1H-pyrazol-1-yl)(1-(7-(8-ethyl-7-fluoro-3-hydroxynaphthalen-1-yl)-8-fluoro-2-(((2R,7aS)-2-fluorotetrahydro-1H-pyrrolizin-7a(5H)-yl)methoxy)pyrido[4,3-d]pyrimidin-4-yl)piperidin-4-yl)methanone]: the IC50 in assay [1] turned out to be 3110 nM; in assay [2], 1390 nM; at KRas WT, 378 nM; on KRas G12C, 234 nM; at KRas G12S, 346 nM; in assay [3], 312 nM.
